Experimental data: PubChem BioAssay AID328 (DTP/NCI, 2004)
Where “and” joins values, the source holds several entries; their conditions need not be identical. Equal entries are not always repeated. Inconclusive results and toxic doses are left out. The calls were made as follows: active = survival T/C of 150% or more; inactive = T/C below 125% in these data.

Tested on: BDF1 mice, P388 leukemia ip, median survival T/C
Experiment: NCI In Vivo Anticancer Drug Screen. Data for tumor model P388 Leukemia (intraperitoneal) in B6D2F1 (BDF1) mice
Details: endpoint: median survival time, higher = longer survival
How it was run: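 Compound-treated tumour-bearing mice were compared with vehicle-treated controls. Survival was recorded, and the value is the treated-group measurement divided by the control-group measurement (T/C).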

[1] = dose: 50.0 mg/kg/injection, schedule: Q01DX009 (ip), vehicle: saline with Tween-80
[2] = dose: 100.0 mg/kg/injection, schedule: Q01DX009 (ip), vehicle: saline with Tween-80
[3] = dose: 100.0 mg/kg/injection, schedule: Q04DX003 (ip), vehicle: saline with Tween-80
[4] = dose: 200.0 mg/kg/injection, schedule: Q04DX003 (ip), vehicle: saline with Tween-80

Measured: T/C

OCC1OC(O)C(O)C(O)C1O (configuration not stated)
inactive: dose: 500.0 mg/kg/injection, schedule: Q01DX009 (ip), vehicle: saline 124 % of control | dose: 500.0 mg/kg/injection, schedule: Q04DX003 (ip), vehicle: saline 100 % of control | dose: 1000.0 mg/kg/injection, schedule: Q01DX009 (ip), vehicle: saline 117 % of control | dose: 1000.0 mg/kg/injection, schedule: Q04DX003 (ip), vehicle: saline 100 % of control | dose: 2000.0 mg/kg/injection, schedule: Q01DX009 (ip), vehicle: saline 120 % of control | dose: 2000.0 mg/kg/injection, schedule: Q04DX003 (ip), vehicle: saline 100 % of control | dose: 4000.0 mg/kg/injection, schedule: Q01DX009 (ip), vehicle: saline 100 % of control | dose: 4000.0 mg/kg/injection, schedule: Q04DX003 (ip), vehicle: saline 102 % of control

CN(C)CCCc1c2ccccc2nc2ccc(Cl)cc12
inactive: dose: 1.56 mg/kg/injection, schedule: Q01DX009 (ip), vehicle: saline 109 % of control | dose: 3.12 mg/kg/injection, schedule: Q01DX009 (ip), vehicle: saline 90 % of control | dose: 6.0 mg/kg/injection, schedule: Q04DX003 (ip), vehicle: saline 104 % of control | dose: 6.25 mg/kg/injection, schedule: Q01DX009 (ip), vehicle: saline 100 % of control and 109 % of control | dose: 11.0 mg/kg/injection, schedule: Q01DX009 (ip), vehicle: saline 109 % of control | dose: 12.0 mg/kg/injection, schedule: Q04DX003 (ip), vehicle: saline 109 % of control | dose: 12.5 mg/kg/injection, schedule: Q01DX009 (ip), vehicle: saline 100 % of control | dose: 16.0 mg/kg/injection, schedule: Q01DX009 (ip), vehicle: saline 100 % of control | dose: 25.0 mg/kg/injection, schedule: Q04DX003 (ip), vehicle: saline 109 % of control | dose: 37.0 mg/kg/injection, schedule: Q01DX009 (ip), vehicle: saline 118 % of control | dose: 50.0 mg/kg/injection, schedule: Q01DX009 (ip), vehicle: saline 109 % of control

CCN1CC2(CO)CCC(OC)C34C5CC6C(OC)CC(O)(C5C6OC)C(O)(C(OC)C23)C14 (configuration not stated)
inactive: [1] 100 % of control | [2] 103 % of control | dose: 200.0 mg/kg/injection, schedule: Q01DX009 (ip), vehicle: saline with Tween-80 100 % of control

N=C(N=C(N)N)N1CCOCC1
inactive: dose: 50.0 mg/kg/injection, schedule: Q04DX003 (ip), vehicle: saline with Tween-80 110 % of control | [3] 115 % of control | [4] 105 % of control

CC[C@@]1(O)C[C@H](OC2CC(N(C)C)C(OC3CC(O)C(OC4CCC(=O)C(C)O4)C(C)O3)C(C)O2)c2c(cc3c(c2O)C(=O)c2c(O)cccc2C3=O)[C@H]1C(=O)OC (some centres not stated)
active: dose: 2.0 mg/kg/injection, schedule: Q01DX009 (ip), vehicle: water 154 % of control | dose: 3.24 mg/kg/injection, schedule: Q04DX003 (ip), vehicle: water 169 % of control | dose: 4.0 mg/kg/injection, schedule: Q01DX009 (ip), vehicle: saline 166 % of control | dose: 4.0 mg/kg/injection, schedule: Q01DX009 (ip), vehicle: water 194 % of control | dose: 5.4 mg/kg/injection, schedule: Q04DX003 (ip), vehicle: water 197 % of control | dose: 8.0 mg/kg/injection, schedule: Q01DX009 (ip), vehicle: saline 236 % of control | dose: 9.0 mg/kg/injection, schedule: Q04DX003 (ip), vehicle: water 203 % of control | dose: 9.4 mg/kg/injection, schedule: Q04DX003 (ip), vehicle: water 184 % of control
inactive: dose: 0.25 mg/kg/injection, schedule: Q01DX009 (ip), vehicle: water 100 % of control | dose: 0.5 mg/kg/injection, schedule: Q01DX009 (ip), vehicle: saline 116 % of control | dose: 4.7 mg/kg/injection, schedule: Q04DX003 (ip), vehicle: water 116 % of control

COc1ccc(CNCCNCc2ccc(OC)c(OC)c2)cc1OC
inactive: [3] 115 % of control | [4] 105 % of control | dose: 400.0 mg/kg/injection, schedule: Q04DX003 (ip), vehicle: saline with Tween-80 110 % of control

O=c1onc(-c2ccc(Cl)cc2)c2ccccc12
inactive: dose: 25.0 mg/kg/injection, schedule: Q01DX009 (ip), vehicle: saline with Tween-80 105 % of control | [1] 94 % of control | [2] 102 % of control
